This passage reports Ki results from BindingDB's records for PubMed 10347254 (R. W. Johnson Pharmaceutical Research Institute, 1999).

Each structure is given as a SMILES string.

This assay deals with Histamine H3 receptor (Homo sapiens, UniProt Q9Y5N1).
Histamine H3 receptor, sequence (Q9Y5N1 whole entry): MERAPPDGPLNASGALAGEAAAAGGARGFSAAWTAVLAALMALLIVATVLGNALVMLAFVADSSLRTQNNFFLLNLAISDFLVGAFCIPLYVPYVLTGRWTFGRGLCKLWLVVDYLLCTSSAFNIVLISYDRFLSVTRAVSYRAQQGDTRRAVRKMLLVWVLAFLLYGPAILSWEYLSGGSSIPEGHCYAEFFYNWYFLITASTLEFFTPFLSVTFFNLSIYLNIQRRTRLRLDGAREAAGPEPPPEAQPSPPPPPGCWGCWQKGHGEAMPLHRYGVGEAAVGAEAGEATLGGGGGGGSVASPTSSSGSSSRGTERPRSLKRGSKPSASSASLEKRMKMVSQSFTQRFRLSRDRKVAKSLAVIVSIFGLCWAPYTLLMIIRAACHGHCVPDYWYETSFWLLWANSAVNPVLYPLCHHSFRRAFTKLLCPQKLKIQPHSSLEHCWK
Turning to `COc1ccc(CN(CCN(C)C)c2ccccn2)cc1`, the inhibitory constant (Ki) (commonly a dissociation constant, usually derived from enzyme kinetics or from competition with a known ligand) was above 10 µM. In the case of `CNCCc1c[nH]cn1` [N(alpha)-Methylhistamine] it was above 10 µM. In the case of `c1c[nH]cn1` it was above 10 µM. Under `N=C(N)SCCc1cnc[nH]1` [2-(3H-imidazol-4-yl)ethylsulfanylmethanimidamide] stands above 10 µM; under `c1nc(CC2CCNCC2)c[nH]1` [4-(1H-imidazol-4-ylmethyl)piperidine], above 10 µM; under `CN/C([CH-][N+](=O)[O-])=[NH+]\CCSCc1ccc(CN(C)C)o1`, above 10 µM.
